Data: ChEMBL document CHEMBL4828717, “Synthetic cajaninstilbene acid derivatives eradicate methicillin-resistant Staphylococcus aureus persisters and biofilms” (Eur J Med Chem, 2021)
The source made the active and inactive calls. The rule behind the calls is not given here.

Experiments:
Staphylococcus aureus [1] = assay: Synergistic antimicrobial activity against Staphylococcus aureus ATCC 43300 assessed as FICI at 1 times MIC after 24 hrs in presence of 8 ug/ml gentamicin by checkerboard assay; assay type: functional
Staphylococcus aureus [2] = assay: Antibacterial activity against methicillin resistant Staphylococcus aureus ATCC49025 assessed as reduction in microbial growth after 16 to 18 hrs by microbroth dilution method; assay type: functional; conditions: time 16-18 hrs
Cell membrane [3] = assay: Induction of cell membrane damage in methicillin resistant Staphylococcus aureus ATCC 43300 assessed as increase in ATP leakage […] at 0.5 times MIC measured every 30 mins for 6 hrs by Bactiter-glo assay; assay type: subcellular
[4] = Toxicity in BALB/c mouse infected with methicillin-resistant Staphylococcus aureus ATCC 43300 assessed as damage in lung at 50 to 200 mg/kg, sc administered every 24 hrs for 4 days by H&E staining based light microscopic analysis; assay type: organism-based; conditions: in vivo, dose 50-200 mg/kg
Cell membrane [5] = assay: Induction of cell membrane permeabilization in methicillin resistant Staphylococcus aureus ATCC 43300 assessed as fluorescence intensity at 2 times MIC measured after 30 mins by propidium iodide staining based fluorescence assay
Staphylococcus aureus [6] = assay: Antibacterial activity against methicillin resistant Staphylococcus aureus ATCC515992 assessed as reduction in microbial growth after 16 to 18 hrs by microbroth dilution method; assay type: functional; conditions: time 16-18 hrs
Staphylococcus aureus [7] = assay: Synergistic antimicrobial activity against Staphylococcus aureus ATCC 43300 assessed as FICI at 2 times MIC after 24 hrs in presence of 64 ug/ml kanamycin by checkerboard assay; assay type: functional
Staphylococcus aureus [8] = assay: Antibacterial activity against methicillin resistant Staphylococcus aureus ATCC49800 assessed as reduction in microbial growth after 16 to 18 hrs by microbroth dilution method; assay type: functional; conditions: time 16-18 hrs
Cell membrane [9] = assay: Induction of cell membrane damage in Staphylococcus aureus ATCC 43300 at 0.5 times MIC after 90 mins by confocal laser scanning microscopy analysis; assay type: subcellular
Cell membrane [10] = assay: Induction of cell membrane damage in methicillin resistant Staphylococcus aureus ATCC 43300 assessed as increase in ATP leakage […] at 4 times MIC measured every 30 mins for 6 hrs by Bactiter-glo assay
Staphylococcus aureus [11] = assay: Antibacterial activity against methicillin resistant Staphylococcus aureus ATCC49008 assessed as reduction in microbial growth after 16 to 18 hrs by microbroth dilution method; assay type: functional; conditions: time 16-18 hrs
Staphylococcus aureus [12] = assay: Synergistic antimicrobial activity against Staphylococcus aureus ATCC 43300 assessed as FICI at 2 times MIC after 24 hrs in presence of 4 ug/ml gentamicin by checkerboard assay; assay type: functional
Staphylococcus aureus [13] = assay: Synergistic antimicrobial activity against Staphylococcus aureus ATCC 43300 assessed as FICI at 1 times MIC after 24 hrs in presence of 128 ug/ml kanamycin by checkerboard assay; assay type: functional
Cell membrane [14] = assay: Induction of cell membrane damage in Staphylococcus aureus ATCC 43300 at 1 times MIC after 90 mins by confocal laser scanning microscopy analysis
Cell membrane [15] = assay: Induction of cell membrane depolarization in methicillin resistant Staphylococcus aureus ATCC 43300 measured up to 60 mins by DiOC5 dye based flow analyzer; conditions: time min <=60, TDE = time-dependent effect
Staphylococcus aureus [16] = assay: Antibacterial activity against methicillin resistant Staphylococcus aureus ATCC 52056 assessed as reduction in microbial growth after 16 to 18 hrs by microbroth dilution method; assay type: functional; conditions: time 16-18 hrs
Cell membrane [17] = assay: Induction of cell membrane damage in Staphylococcus aureus ATCC 43300 at 2 times MIC after 90 mins by confocal laser scanning microscopy analysis
Staphylococcus aureus [18] = assay: Antibacterial activity against methicillin resistant Staphylococcus aureus ATCC48706 assessed as reduction in microbial growth after 16 to 18 hrs by microbroth dilution method; assay type: functional; conditions: time 16-18 hrs
Cell membrane [19] = assay: Induction of cell membrane depolarization in methicillin resistant Staphylococcus aureus ATCC 43300 measured after 60 mins by DiOC5 dye based flow analyzer
Pseudomonas aeruginosa = assay: Antibacterial activity against Pseudomonas aeruginosa ATCC27853 assessed as reduction in microbial growth after 16 to 18 hrs by microbroth dilution method; assay type: functional; conditions: time 16-18 hrs
Cell membrane [20] = assay: Induction of cell membrane damage in methicillin resistant Staphylococcus aureus ATCC 43300 assessed as increase in ATP leakage […] at 1 times MIC measured every 30 mins for 6 hrs by Bactiter-glo assay
Staphylococcus aureus [21] = assay: Antibacterial activity against Staphylococcus aureus ATCC 25923 assessed as reduction in microbial growth after 16 to 18 hrs by microbroth dilution method; assay type: functional; conditions: time 16-18 hrs
Staphylococcus aureus [22] = assay: Synergistic antimicrobial activity against Staphylococcus aureus ATCC 43300 assessed as FICI at 0.5 times MIC after 24 hrs in presence of 64 ug/ml piperacillin by checkerboard assay; assay type: functional
Staphylococcus aureus [23] = assay: Synergistic antimicrobial activity against Staphylococcus aureus ATCC 43300 assessed as FICI at 0.25 times MIC after 24 hrs in presence of 128 ug/ml piperacillin by checkerboard assay; assay type: functional
Staphylococcus aureus [24] = assay: Antibacterial activity against methicillin resistant Staphylococcus aureus ATCC513045 assessed as reduction in microbial growth after 16 to 18 hrs by microbroth dilution method; assay type: functional; conditions: time 16-18 hrs
[25] = Toxicity in BALB/c mouse infected with methicillin-resistant Staphylococcus aureus ATCC 43300 assessed as damage in spleen at 50 to 200 mg/kg, sc administered every 24 hrs for 4 days by H&E staining based light microscopic analysis; assay type: organism-based; conditions: in vivo, dose 50-200 mg/kg
Staphylococcus aureus [26] = assay: Antibacterial activity against methicillin resistant Staphylococcus aureus ATCC48966 assessed as reduction in microbial growth after 16 to 18 hrs by microbroth dilution method; assay type: functional; conditions: time 16-18 hrs
Escherichia coli = assay: Antibacterial activity against Escherichia coli ATCC25922 assessed as reduction in microbial growth after 16 to 18 hrs by microbroth dilution method; assay type: functional; conditions: ATCC 25922, time 16-18 hrs
Staphylococcus aureus [27] = assay: Antibacterial activity against methicillin resistant Staphylococcus aureus ATCC 62202 assessed as reduction in microbial growth after 16 to 18 hrs by microbroth dilution method; assay type: functional; conditions: time 16-18 hrs
Staphylococcus aureus [28] = assay: Antibacterial activity against methicillin resistant Staphylococcus aureus ATCC 43300 persisters assessed as reduction in number of bacteria at 4 times MIC incubated for 4 hrs by colony counting method; assay type: functional, organism-based
Staphylococcus aureus [29] = assay: Antimicrobial activity against methicillin-resistant Staphylococcus aureus ATCC 43300 infected in abscesses mouse model assessed as increase in mouse survival at 50 to 200 mg/kg, sc administered every 24 hrs for 4 days; assay type: functional, organism-based; conditions: dose 50-200 mg/kg
Staphylococcus aureus [30] = assay: Synergistic antimicrobial activity against Staphylococcus aureus ATCC 43300 assessed as FICI at 1 times MIC after 24 hrs in presence of 32 ug/ml piperacillin by checkerboard assay; assay type: functional
Staphylococcus aureus [31] = assay: Inhibition of biofilm formation in methicillin-resistant Staphylococcus aureus ATCC 43300 at 1 times MIC incubated for 24 hrs by crystal violet staining based microplate reader assay; assay type: functional
Enterococcus faecalis = assay: Antibacterial activity against Enterococcus faecalis ATCC29212 assessed as reduction in microbial growth after 16 to 18 hrs by microbroth dilution method; assay type: functional; conditions: ATCC 29212, time 16-18 hrs
Staphylococcus aureus [32] = assay: Antibacterial activity against methicillin resistant Staphylococcus aureus ATCC 43300 assessed as reduction in microbial growth after 16 to 18 hrs by microbroth dilution method; assay type: functional; conditions: time 16-18 hrs

In the case of `CC(C)=CCc1c(OCCF)cc(/C=C/c2ccc(F)cc2)c(C(=O)O)c1O`, the “fractional inhibitory concentration index (FICI)” value (Staphylococcus aureus [1]) was 0.75, the MIC (Staphylococcus aureus [2]) was 4 µg/mL and the Activity (Cell membrane [3]) was “Active”. The Activity [4] was “Non-Toxic”, the Activity (Cell membrane [5]) was “Active” and the MIC (Staphylococcus aureus [6]) was 4 µg/mL. The “fractional inhibitory concentration index (FICI)” value (Staphylococcus aureus [7]) was 1, the MIC (Staphylococcus aureus [8]) was 4 µg/mL and the Activity (Cell membrane [9]) was “Active”. For the same compound, the Activity (Cell membrane [10]) was “Active”, the MIC (Staphylococcus aureus [11]) was 4 µg/mL and the “fractional inhibitory concentration index (FICI)” value (Staphylococcus aureus [12]) was 0.75. For the same compound, the “fractional inhibitory concentration index (FICI)” value (Staphylococcus aureus [13]) was 0.75, the Activity (Cell membrane [14]) was “Active” and the Activity (Cell membrane [15]) was “Tde”. The MIC (Staphylococcus aureus [16]) was 4 µg/mL, the Activity (Cell membrane [17]) was “Active” and the MIC (Staphylococcus aureus [18]) was 4 µg/mL. For the same compound, the Activity (Cell membrane [19]) was “Dose-Dependent Effect”, the MIC (Pseudomonas aeruginosa) was greater than 32 µg/mL and the Activity (Cell membrane [20]) was “Active”. The MIC (Staphylococcus aureus [21]) was 2 µg/mL, the “fractional inhibitory concentration index (FICI)” value (Staphylococcus aureus [22]) was 0.25 and the “fractional inhibitory concentration index (FICI)” value (Staphylococcus aureus [23]) was 0.3125. The MIC (Staphylococcus aureus [24]) was 4 µg/mL, the Activity [25] was “Non-Toxic” and the MIC (Staphylococcus aureus [26]) was 4 µg/mL. For the same compound, the MIC (Escherichia coli) was greater than 32 µg/mL, the MIC (Staphylococcus aureus [27]) was 4 µg/mL and the Activity (Staphylococcus aureus [28]) was “Active”. The Activity (Staphylococcus aureus [29]) was “Active”, the “fractional inhibitory concentration index (FICI)” value (Staphylococcus aureus [30]) was 0.315 and the “inhibition (INH)” value (Staphylococcus aureus [31]) was 50%. The MIC (Enterococcus faecalis) was greater than 32 µg/mL and the MIC (Staphylococcus aureus [32]) was 4 µg/mL.
